From PubChem BioAssay (NCI)
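Results reflect a 48-hour exposure of cells in 96-well plates to compound at five concentrations. TGI is the concentration that stops growth completely.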

Columns and labels:
Test in all cases: NCI-60 cell line screen, 48 h
SK-MEL-5 melanoma = test system: SK-MEL-5 melanoma
SW-620 colon = test system: SW-620 colon
HS 578T breast = test system: HS 578T breast
NCI-H522 lung = test system: NCI-H522 lung
MALME-3M melanoma = test system: MALME-3M melanoma
COLO 205 colon = test system: COLO 205 colon
SK-MEL-2 melanoma = test system: SK-MEL-2 melanoma
TK-10 renal = test system: TK-10 renal
U251 CNS = test system: U251 CNS
UACC-62 melanoma = test system: UACC-62 melanoma
KM12 colon = test system: KM12 colon
EKVX NSCLC = test system: EKVX NSCLC
HL-60(TB) leukemia = test system: HL-60(TB) leukemia
RPMI-8226 leukemia = test system: RPMI-8226 leukemia
NCI-H226 lung = test system: NCI-H226 lung
T-47D breast = test system: T-47D breast
MCF7 breast = test system: MCF7 breast
NCI/ADR-RES ovarian = test system: NCI/ADR-RES ovarian
SNB-19 CNS = test system: SNB-19 CNS
DU-145 prostate = test system: DU-145 prostate
SF-295 CNS = test system: SF-295 CNS
A498 renal = test system: A498 renal
RXF 393 renal = test system: RXF 393 renal
NCI-H23 lung = test system: NCI-H23 lung
M14 melanoma = test system: M14 melanoma
MOLT-4 leukemia = test system: MOLT-4 leukemia
786-0 renal = test system: 786-0 renal
IGROV1 ovarian = test system: IGROV1 ovarian
UACC-257 melanoma = test system: UACC-257 melanoma
BT-549 breast = test system: BT-549 breast
A549 NSCLC = test system: A549 NSCLC
PC-3 prostate = test system: PC-3 prostate
HCT-116 colon = test system: HCT-116 colon
ACHN renal = test system: ACHN renal
MDA-MB-231 breast = test system: MDA-MB-231 breast
HCT-15 colon = test system: HCT-15 colon
MDA-N = test system: MDA-N
HOP-92 NSCLC = test system: HOP-92 NSCLC
HT29 colon = test system: HT29 colon
OVCAR-8 ovarian = test system: OVCAR-8 ovarian
HOP-62 NSCLC = test system: HOP-62 NSCLC
SN12C renal = test system: SN12C renal
NCI-H460 lung = test system: NCI-H460 lung
CAKI-1 renal = test system: CAKI-1 renal
SK-MEL-28 melanoma = test system: SK-MEL-28 melanoma
K-562 leukemia = test system: K-562 leukemia
OVCAR-4 ovarian = test system: OVCAR-4 ovarian
UO-31 renal = test system: UO-31 renal
OVCAR-3 ovarian = test system: OVCAR-3 ovarian
MDA-MB-435 = test system: MDA-MB-435
CCRF-CEM leukemia = test system: CCRF-CEM leukemia
OVCAR-5 ovarian = test system: OVCAR-5 ovarian
LOX IMVI melanoma = test system: LOX IMVI melanoma
SR leukemia = test system: SR leukemia
SF-539 CNS = test system: SF-539 CNS
SK-OV-3 ovarian = test system: SK-OV-3 ovarian
SNB-75 CNS = test system: SNB-75 CNS
SF-268 CNS = test system: SF-268 CNS

Measured: TGI

O=C1NC(=O)C(C(c2ccc(Cl)cc2)C2C(=O)NC(=O)NC2=O)C(=O)N1
> 100 µM: SK-MEL-5 melanoma | SW-620 colon | HS 578T breast | NCI-H522 lung | MALME-3M melanoma | COLO 205 colon | SK-MEL-2 melanoma | TK-10 renal | U251 CNS | UACC-62 melanoma | KM12 colon | EKVX NSCLC | HL-60(TB) leukemia | RPMI-8226 leukemia | NCI-H226 lung | T-47D breast | MCF7 breast | NCI/ADR-RES ovarian | SNB-19 CNS | DU-145 prostate | SF-295 CNS | A498 renal | RXF 393 renal | NCI-H23 lung | M14 melanoma | MOLT-4 leukemia | 786-0 renal | IGROV1 ovarian | UACC-257 melanoma | BT-549 breast | A549 NSCLC | PC-3 prostate | HCT-116 colon | ACHN renal | MDA-MB-231 breast | HCT-15 colon | MDA-N | HOP-92 NSCLC | HT29 colon | OVCAR-8 ovarian | HOP-62 NSCLC | SN12C renal | NCI-H460 lung | CAKI-1 renal | SK-MEL-28 melanoma | K-562 leukemia | OVCAR-4 ovarian | UO-31 renal | OVCAR-3 ovarian | MDA-MB-435 | CCRF-CEM leukemia | OVCAR-5 ovarian | LOX IMVI melanoma

CN(C)CC(CO)(CN(C)C)CN(C)C
> 100 µM: SK-MEL-5 melanoma | SW-620 colon | NCI-H522 lung | MALME-3M melanoma | COLO 205 colon | TK-10 renal | U251 CNS | UACC-62 melanoma | KM12 colon | EKVX NSCLC | HL-60(TB) leukemia | RPMI-8226 leukemia | NCI-H226 lung | MCF7 breast | NCI/ADR-RES ovarian | SNB-19 CNS | DU-145 prostate | SF-295 CNS | RXF 393 renal | NCI-H23 lung | M14 melanoma | SR leukemia | MOLT-4 leukemia | 786-0 renal | IGROV1 ovarian | UACC-257 melanoma | BT-549 breast | A549 NSCLC | PC-3 prostate | HCT-116 colon | ACHN renal | HCT-15 colon | MDA-N | HOP-92 NSCLC | SF-539 CNS | SK-OV-3 ovarian | HT29 colon | OVCAR-8 ovarian | HOP-62 NSCLC | SN12C renal | NCI-H460 lung | CAKI-1 renal | SK-MEL-28 melanoma | SNB-75 CNS | K-562 leukemia | OVCAR-4 ovarian | UO-31 renal | OVCAR-3 ovarian | CCRF-CEM leukemia | OVCAR-5 ovarian | SF-268 CNS
